Laboratory results taken from publication PMC10931776, “Modes of Interactions with DNA/HSA Biomolecules and Comparative Cytotoxic Studies of Newly Synthesized Mononuclear Zinc(II) and Heteronuclear Platinum(II)/Zinc(II) Complexes toward Colorectal Cancer Cells” (International Journal of Molecular Sciences, 2024).

Columns and labels:
CT26 cells [1] = assay: Annexin V FITC / Propidium Iodide apoptosis flow cytometry; assay type: cell-based, mouse; conditions: CT26, 24 h treatment
Description: The capacity of the C1 complex to induce apoptotic death in cancer cells was assessed using flow cytometric analysis. This analysis involved treating cells with the C1 complex and subsequently staining them with Annexin V FITC and Propidium Iodide. […] In a similar vein, in a related context, NCI-H460 cancer cells, which are a line of human large-cell lung carcinoma cells, were subjected to treatment with binuclear platinum(II) complexes. These complexes feature 4′-substituted-2,2′:6′,2″-terpyridine ligands and were administered for a duration of 24 h. Following this treatment, there was a significant increase in the proportion of apoptotic cells, correlating strongly with exposure to these specific ligands.
The evaluation of apoptosis in cells subjected to treatment was conducted employing the Annexin V and Propidium Iodide double staining assay in accordance with the methodology outlined in prior studies. This approach enabled the determination of the percentage of apoptotic cells. In further experiments, cells were fixed and permeabilized using a permeabilization buffer provided by BD Bioscience, Heidelberg, Germany. […] The analysis of these treated cells was carried out using a FACS Calibur flow cytometer (BD Biosciences, San Jose, CA, USA) and the resulting data were meticulously analyzed with FlowJo software (v10.8.2). […]

[2] = molecular target: T1, Human serum albumin (HSA) (Homo sapiens, UniProt P02768); assay: HSA fluorescence quenching; assay type: binding; conditions: HSA 2 µM, complex 0–30 µM, PBS pH 7.4, room temperature, λex 295 nm
T1 construct: reagents in general came from Sigma-Aldrich, Acros Organics or Merck
Excerpt: Human serum albumin (HSA) produces a fluorescence signal when excited at 295 nm due to the tryptophan residues. This characteristic makes fluorescence spectroscopy an effective tool for studying complex interactions involving HSA. If the examined complex interacts with HSA, an increasing concentration of the complex will lead to a decrease in fluorescence, as shown in Figure 4 and Figures S14–S17. […] The Stern–Volmer equation (Equation (S2)) was used to determine the Stern–Volmer constant, Ksv, for the HSA interactions.
The binding affinity of the complexes C1–C5 to HSA has been determined through fluorescence quenching experiments. The measurements were conducted in a 0.01 M PBS with a pH of 7.4 at room temperature. The HSA concentration was kept constant at 2 μM while the concentration of complexes C1–C5 was increased from 0 to 30 μM, resulting in a significant decrease in emissions at 352 nm. Before each measurement, the system was shaken at room temperature. The fluorescence intensity was measured with the wavelength of excitation at 295 nm and recorded in the 300 to 500 nm range. The width of the excitation and emission slits (10 nm) and scan rate were maintained at a constant rate. The Stern–Volmer constants, Ksv, were determined by Equation (2).

CT26 cells [3] = assay: Cell cycle analysis by flow cytometry; assay type: cell-based, mouse; conditions: CT26, 24 h treatment, vs untreated
Description: The study of cell cycle arrest in CT26 carcinoma cells treated with the potent compound C1 was conducted to elucidate the potential cellular mechanisms underlying its anticancer effect. For this purpose, CT26 cells were subjected to 24 h treatment with the C1 complex. […] This arrest is likely attributable to molecular alterations within the cancer cells post-treatment. […] This reduction in the S phase, where DNA replication occurs, further indicates the efficacy of the C1 complex in hindering cell cycle progression. […] The induction of cell cycle arrest by the C1 compound potentially curtails the growth and dissemination of carcinoma cells, underscoring its efficacy as a promising anticancer agent.
Our research progressed to explore the potential effects of the newly synthesized C1 complex on the cell cycle dynamics of CT26 tumor cells. […] Each sample tube was then treated with a specific antibody targeting Ki67 (eBioscience, San Diego, CA, USA)/1 μL of Vybrant® DyeCycleTM Ruby stain (Thermo Fisher Scientific Inc., Waltham, MA, USAand subsequently analyzed using a FACS Calibur flow cytometer (BD Biosciences, San Jose, CA, USA). A minimum of 15,000 events per sample were examined. Data analysis was conducted using the FlowJo vX.0.7 software, allowing for a detailed assessment of the cell cycle phases and any impact induced by the C1 complex.

[4] = system: human colorectal carcinoma (SW480); assay: MTT cytotoxicity assay, SW480; assay type: cell-based; conditions: 48 h
Description: The in vitro cytotoxicity of newly synthesized mono- and heteronuclear platinum(II)/and zinc(II) complexes, featuring a 4,4′,4″-tri-tert-butyl-2,2′:6′,2″-terpyridine ligand (designated as C1–C5), was assessed using MTT assay procedures. This evaluation targeted various cell lines: mouse colorectal carcinoma (CT26), human colorectal carcinoma (HCT116 and SW480), and non-cancerous mouse mesenchymal stem cells (mMSC). These cell lines were exposed to synthesized complexes for 48 h, with concentrations ranging from 1.17 to 150 μM.
In our study, various cell lines were cultured, including mouse colorectal carcinoma (CT26), human colorectal carcinoma (HCT116 and SW480) obtained from ATCC, USA, and mouse mesenchymal stem cells (mMSC, Gibco), New York, NY, USA). These cell lines were consistently maintained in complete Dulbecco’s Modified Eagle Medium (DMEM) supplemented with 10% fetal bovine serum (FBS) (Sigma Aldrich, St. Louis, MO, USA), 100 IU/mL penicillin, and 100 μg/mL streptomycin antibiotics (Invitrogen, Carlsbad, CA, USA). The cultures were incubated at 37 °C in a humidified atmosphere of 5% carbon dioxide (CO2). […] The viability and count of the cells were determined using Trypan blue staining, ensuring the accuracy and reliability of the experimental outcomes.
The cytotoxic effects of five newly synthesized complexes, alongside cisplatin, were assessed through the MTT assay method, in line with previously established protocols. During the exponential growth phase, cells were collected from culture flasks, counted, and then seeded in 96-well culture plates at a density of 5·10^3 cells per well. Subsequent treatment involved exposing these cells to varying concentrations of the newly synthesized complexes and cisplatin (ranging from 1.17 to 150 μM) for a duration of 48 h, with fresh complete medium serving as the control. The results were quantified relative to the control (untreated cells), providing a comparative measure of cytotoxicity. Additionally, IC50 values, representing the concentration required to inhibit 50% of the cell viability, were calculated using Microsoft Office Excel 2010. Lastly, the data were presented as percentages of viable cells in accordance with the methodology outlined in the referenced study, facilitating a comprehensive understanding of the anticancer potential of these compounds.

T1 sequence (P02768 25-609): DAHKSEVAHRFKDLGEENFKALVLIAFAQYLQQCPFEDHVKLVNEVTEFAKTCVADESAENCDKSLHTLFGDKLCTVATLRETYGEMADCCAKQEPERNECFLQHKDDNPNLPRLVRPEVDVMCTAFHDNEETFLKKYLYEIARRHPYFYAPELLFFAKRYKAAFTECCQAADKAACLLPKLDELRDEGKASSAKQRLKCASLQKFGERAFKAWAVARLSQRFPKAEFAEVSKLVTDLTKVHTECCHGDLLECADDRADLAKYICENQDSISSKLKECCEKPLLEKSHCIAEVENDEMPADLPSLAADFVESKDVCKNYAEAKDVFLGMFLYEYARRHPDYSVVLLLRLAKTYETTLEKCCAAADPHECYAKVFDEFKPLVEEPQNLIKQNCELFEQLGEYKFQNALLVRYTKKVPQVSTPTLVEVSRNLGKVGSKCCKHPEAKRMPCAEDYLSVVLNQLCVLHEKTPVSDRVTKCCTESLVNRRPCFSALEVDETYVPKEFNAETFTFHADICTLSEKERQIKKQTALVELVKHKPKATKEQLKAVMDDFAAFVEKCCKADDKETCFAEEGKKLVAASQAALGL

Substance: [ZnCl2(terpy^t^Bu)] [C1]
- Induction of apoptotic cell death (CT26 cells [1]; Annexin V FITC/PI): entered both early and late stages of apoptosis
- Quadrant number upper left of PI / Annexin V plot (necrotic, AnnV−PI+) (CT26 cells [1]; representative FACS plot, untreated 1.55): underwent necrosis
- Stern–Volmer constant Ksv, HSA [2]: 1.8 ± 0.1 10^4 M^–1
- Cell cycle distribution, G0/G1 phase (CT26 cells [3]): G0/G1 phase arrest
- Cell cycle distribution, synthesis (S) phase (CT26 cells [3]): notable decrease
- Selectivity Index (IC50 mMSC/IC50), SW480 [4]: 0.5
- IC50 ([4]; read-out: IC50 ± SEM, SW480): 106 ± 126 µM
